Columns and labels:
[1] = system: rat model of collagenase‐induced ICH; experiment: Bederson scale in ICH rat model; assay type: in vivo
Method: On the other hand, neurological deficit was evaluated with the Bederson scale,24 ranging from 0 (asymptomatic) to 8 (severe deficit), which included the following items: spontaneous movement, spontaneous rotation, spontaneous flexion of the contralateral forelimb, edge detection, turn after tail suspension, reflection of protection. Behavioral studies were performed at baseline (before surgery) and at 24 hours and 14 days after ICH during the darkness cycle. An experienced investigator, blind to treatment and neuroimaging data, analyzed the behavioral tests.

MMP‐12 = target: T1, MMP‐12 (Homo sapiens, UniProt P39900); experiment: MMP enzyme activity assay; assay type: biochemical; conditions: read-out: MMP Inhibitory Activity (IC50), MMP‐12
T1 construct: GenScript (contract testing)
Method: […]. Protease stock solutions (10 mmol/L) were diluted with assay buffer to make final test solutions containing no more than 2.0% DMSO. The samples were dispensed into plates; substrate was added and read with PHERAstar PLUS (BMG Labtech, Ortenberg, Germany) plate reader.

[2] = system: rat model of collagenase‐induced ICH; experiment: Hematoma and lesion volume by T2‐weighted MRI in ICH rat model; assay type: in vivo
Method: Glucose levels were analyzed before surgery (mean 144.3±22.1 mg/dL). Rats were placed in a stereotaxic frame (Stoelting Co, Wood Dale, IL) under sevoflurane anesthesia. After drilling of a small burr hole, 1 μL of saline containing 0.2 U/μL bacterial collagenase type VII (Sigma‐Aldrich Corp, St. Louis, MO) was injected into the right striatum (0.6 mm anterior to bregma, −3.0 mm lateral and 5.5 mm depth) using a Hamilton syringe with a 30 G needle. Injections took place over a 10‐minute period, and the needle remained in place for additional 10 minutes before removal (1 mm/min). The burr hole was filled with bone wax (Ethicon, Somerville, NJ), and the scalp incision was closed with sutures.
. The same experimental design and setting were used to assess the effect of late (3 hours) CM352 treatment. Required sample size was calculated from previous studies using the same model21 in order to be able to detect a 25% effect size on hematoma growth versus controls (2‐tailed t test). Six animals per group are required to detect this difference with a power (1−β) of 0.8 and α=0.05. N was calculated using EPIDAT software (http://www.sergas.es/Saude-publica/EPIDAT-4-2). All treatments were given as a single bolus (jugular) 60 minutes after the collagenase injection for ICH induction. […]
Gradient‐echo pilot scans were performed at the beginning of each imaging session for accurate positioning of the animal inside the magnet bore. Multislice axial T2‐weighted imaging was performed at baseline (1 hour after IHC induction), and at 3 hours, 24 hours, and 14 days after ICH. T2‐weighted images were acquired using a RARE (factor n=4) sequence with the following acquisition parameters: field‐of‐view 19.2×19.2 mm^2, image matrix 192×192 (isotropic in‐plane resolution of 0.1×0.1 mm/pixel), 18 consecutive slices of 0.5 mm thickness.
Magnetic resonance data analysis was performed using Para Vision (Bruker Medical, Ettlingen, Germany), and images were processed with ImageJ (W. S. Rasband, National Institutes of Health, Bethesda, MD: http://rsb.info.nih.gov/ij). The analyzed region of interest was the hematoma and lesion region. Hematoma volumes (basal and 3 and 24 hours) as well as lesion volume at day 14 were manually traced from T2 maps, and the mean signal intensity was measured by 2 well‐trained imaging analysts blind to the experimental conditions.

[3] = Activated partial thromboplastin time in plasma after ICH; assay type: in vivo, rat; conditions: n=3
Method: Prothrombin time (PT) and activated partial thromboplastin time (aPTT) were measured with STA‐Neoplastin R and PTT reagents (STA‐Compact, Stago, Barcelona, Spain). PT results were expressed as percentage of the standard value, and aPTT results were expressed in seconds.

[4] = system: rat model of collagenase‐induced ICH; experiment: Cylinder test (laterality index) in ICH rat model; assay type: in vivo; conditions: 24 hours and 14 days, all P<0.01 vs control
Method: Following STAIR criteria, animal models must show neurological and functional deficits in line with the produced lesion. The model of collagenase‐induced hemorrhage primarily damages the striatum, producing a small forelimb paresis contralateral to the lesion. Sensorimotor deficits after ischemic insult were assessed using the cylinder test, as previously described.23 This test evaluates limb asymmetry during the exploratory activity. Each animal was put in a cylinder with a 20‐cm‐diameter transparent base. A video camera was located under this transparent cylinder for recording the vertical exploratory movements of the animal with its anterior limbs for 2 to 10 minutes, depending on movement grade. For image recording and analysis, VirtulDub software was used. Analyzed behaviors were the numbers of times that the animal touched the cylinder wall and independent use of each limb in contact with the cylinder wall in each upward movement. The laterality index was calculated (the number of times that the animal touched the cylinder with the right leg during the ascendant movement by the number of times that the animals touched with each leg). […] An experienced investigator, blind to treatment and neuroimaging data, analyzed the behavioral tests.

[5] = system: tissue‐type plasminogen activator–induced fibrinolysis in human blood; parameters: method as in PMID 25686022; conditions: read-out: effective concentration to delay lysis time by 50%; cited from earlier work
[6] = system: tissue‐type plasminogen activator–induced fibrinolysis in rat whole blood; experiment: Whole blood clot formation and lysis assay (ROTEM thromboelastometry), rat blood; assay type: biochemical
Method: Citrated blood samples from (n=4) rats (Sprague Dawley) and (n=16) mice ([…], Harlan Iberica) were assayed with a ROTEM analyzer (Pentapharm GmbH, Munich, Germany) as previously described.20 In a prewarmed cuvette and holder we pipetted 1 μL tissue-type plasminogen activator (150 000 U/mL), 20 μL Start-tem reagent (Pentapharm GmbH), 20 μL In-tem reagent (Pentapharm GmbH), 3 μL DMSO (SIGMA) or test compounds in DMSO, and 300 μL prewarmed citrated blood. The cup holder containing the sample mixture was placed immediately on the appropriate channel. Measurements were recorded for 60 minutes to allow clot formation and lysis, and results are expressed as effective concentration to delay lysis time by 50%.

[7] = 1 mg/kg 3 hours after collagenase, 5 hours
[8] = 1 mg/kg 3 hours after collagenase, 24 hours
[9] = 1 mg/kg iv 1 hour after collagenase, 3 hours
[10] = 1 mg/kg iv 1 hour after collagenase, 24 hours

T1 sequence (P39900 106-470, species assumed): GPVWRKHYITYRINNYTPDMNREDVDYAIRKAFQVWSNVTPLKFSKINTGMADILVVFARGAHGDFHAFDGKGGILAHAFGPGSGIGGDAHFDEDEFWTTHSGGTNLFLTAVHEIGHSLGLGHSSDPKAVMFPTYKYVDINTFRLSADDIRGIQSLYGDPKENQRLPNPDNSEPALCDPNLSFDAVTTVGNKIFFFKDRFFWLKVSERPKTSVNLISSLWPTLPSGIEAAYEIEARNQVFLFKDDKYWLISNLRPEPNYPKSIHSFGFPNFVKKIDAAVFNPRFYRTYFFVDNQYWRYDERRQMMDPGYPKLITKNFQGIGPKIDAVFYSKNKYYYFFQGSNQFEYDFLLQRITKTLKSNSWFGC

CNC(=O)c1ccc(Oc2ccc(S(=O)(=O)[C@]3(C(=O)NO)CCC4(CCNCC4)C3)cc2)cc1 [CM352, 4‐[4‐[[(3R)‐3‐(Hydroxycarbamoyl)‐8‐azaspiro[4.5]decan‐3‐yl]sulfonyl]phenoxy]‐N‐methylbenzamide]
neurological deficit (Bederson scale) ([1]; 1 mg/kg 3 hours after collagenase, 24 hours (P<0.01) and day 14 (P<0.05) vs control): better neurological function recovery
neurological deficit (Bederson scale) ([1]; 1 mg/kg iv 1 hour after collagenase, 24 hours, P<0.01 vs control): better neurological functional recovery
neurological deficit (Bederson scale) ([1]; 1 mg/kg iv 1 hour after collagenase, day 14, P<0.01 vs control): beneficial effect of CM352 also being very noticeable
IC50 (MMP‐12): 7.6 nM
hematoma expansion [2, 7]: 115±17%
reduction of hematoma expansion versus control [2, 7]: 62%
hematoma expansion [2, 8]: 114±50%
reduction of hematoma expansion versus control [2, 8]: 58%
lesion size versus control ([2]; 1 mg/kg 3 hours after collagenase, up to day 14, P<0.05): differences in lesion size were patent between the groups
hematoma volume after late administration ([2]; 1 mg/kg 3 hours after collagenase, versus control P<0.01): hematoma stabilized
hematoma expansion [2, 9]: 200±86%
reduction of hematoma expansion versus control [2, 9]: 35%
reduction in hematoma volume compared with controls ([2]; 1 mg/kg iv 1 hour after collagenase, 3 hours after ICH): 29%
hematoma expansion [2, 10]: 133±63%
reduction of hematoma expansion versus control [2, 10]: 56%
reduction in hematoma volume compared with controls ([2]; 1 mg/kg iv 1 hour after collagenase, 24 hours after ICH): 46%
lesion volume smaller than controls ([2]; 1 mg/kg iv 1 hour after collagenase, 14 days): 48%
hematoma volume at 1 hour (basal) ([2]; early‐treatment experiment, 1 hour after collagenase, before treatment, n=6): 23.2±3.5 mm^3
hematoma volume at 1 hour ([2]; late‐treatment experiment, 1 hour after collagenase, before treatment, n=6): 16.0±1.9 mm^3
hematoma volume at 3 hours ([2]; late‐treatment experiment, 3 hours after collagenase, time of treatment, n=6): 39.8±6.7 mm^3
aPTT ([3]; 3 H): 21.7 ± 4.5 s
aPTT ([3]; 5 H): 21.7 ± 4.0 s
aPTT ([3]; 24 H): 21.7 ± 2.5 s
aPTT ([3]; Basal): 21.0 ± 4.0 s
sensorimotor recovery (laterality index) ([4]; 1 mg/kg 3 hours after collagenase): better sensorimotor recovery
sensorimotor recovery (laterality index) ([4]; 1 mg/kg iv 1 hour after collagenase): better sensorimotor recovery
EC50 [5]: 0.7 nM
EC50 ([6]; rat whole blood, tPA‐induced fibrinolysis, ROTEM, read-out: effective concentration to delay lysis time by 50%): 3.7 µM
coagulation activation and clot firmness ([6]; thromboelastometry assay, whole blood): without changes in coagulation activation and clot firmness
